The supplement of paper PMC10307832

Legend:
Test in all cases: relative viability (nuclei count vs DMSO), 5 days (fraction); higher = more cells survive
[1] = compound: O=C(Nc1cc(C(F)(F)F)cc(C(F)(F)F)c1)c1cc(Cl)ccc1O [IMD-0354] + CC(=O)c1c(C)c2cnc(Nc3ccc(N4CCNCC4)cn3)nc2n(C2CCCC2)c1=O [Palbociclib] (partner 0.5 µM)
Summary of the method: (§1)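 Relative viability was taken as the ratio of nuclei in treated wells to nuclei in vehicle wells. Lung cancer cell lines in 1536-well plates received compounds by pin tool one day after seeding, either one drug alone or a fixed anchor-drug dose plus five library-drug doses (not always all listed) in √10 steps. Nuclei were counted on 4× images after 5 days of treatment, and values are medians of duplicate plates.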

[2] = compound: O=C(Nc1cc(C(F)(F)F)cc(C(F)(F)F)c1)c1cc(Cl)ccc1O [IMD-0354] + NC(=O)Nc1cc(-c2cccc(F)c2)sc1C(=O)N[C@H]1CCCNC1 [AZD7762] (partner 0.2 µM)
Summary of the method: as §1

[3] = compound: Cc1cnc(CNC(=O)c2c(=O)c3ccc(N4CCCN(C)CC4)nc3n3c2sc2ccccc23)cn1 [CX-5461] + Cc1nc(NC(=O)N2CCC[C@H]2C(N)=O)sc1-c1ccnc(C(C)(C)C(F)(F)F)c1 [Alpelisib] (partner 2 µM)
Summary of the method: as §1

[4] = compound: O=C(Nc1cc(C(F)(F)F)cc(C(F)(F)F)c1)c1cc(Cl)ccc1O [IMD-0354] + CC(C)C[C@H](NC(=O)[C@H](Cc1ccccc1)NC(=O)c1cnccn1)B(O)O [Bortezomib] (partner 0.002 µM)
Summary of the method: as §1

Cell Line	relative viability ([1]; first compound 0.04 µM)	relative viability ([1]; first compound 0.1265 µM)	relative viability ([1]; first compound 0.4 µM)	relative viability ([1]; first compound 1.265 µM)	relative viability ([1]; first compound 4 µM)	relative viability ([2]; first compound 0.04 µM)	relative viability ([2]; first compound 0.1265 µM)	relative viability ([2]; first compound 0.4 µM)	relative viability ([2]; first compound 1.265 µM)	relative viability ([2]; first compound 4 µM)	relative viability ([3]; first compound 0.01 µM)	relative viability ([3]; first compound 0.03162 µM)	relative viability ([3]; first compound 0.1 µM)	relative viability ([3]; first compound 0.3162 µM)	relative viability ([3]; first compound 1 µM)	relative viability ([4]; first compound 0.04 µM)	relative viability ([4]; first compound 0.1265 µM)	relative viability ([4]; first compound 0.4 µM)	relative viability ([4]; first compound 1.265 µM)	relative viability ([4]; first compound 4 µM)
LU99A	0.295	0.418	0.325	0.279	0.179	0.246	0.393	0.332	0.185	0.151	0.536	0.544	0.527	0.364	0.413	0.878	1.19	0.625	0.281	0.186
ABC-1	0.638	0.778	0.69	–	0.432	1.26	0.98	0.522	0.257	0.331	1.12	0.916	–	1.09	0.751	0.35	0.332	0.343	0.213	0.218
NCI-H2347	0.39	0.418	0.362	0.41	0.405	0.829	0.838	0.617	0.281	0.345	1.11	1.04	1.07	0.834	0.994	0.741	1.02	0.748	0.606	0.533
NCI-H1993	0.657	0.384	0.501	0.443	0.406	0.853	0.645	0.711	0.328	0.529	0.721	0.706	0.667	0.577	0.605	1.03	1.28	0.578	0.506	0.517
NCI-H322M	0.507	0.5	0.5	0.39	0.41	0.566	0.548	0.48	0.268	0.479	0.813	0.938	0.846	–	0.807	1.28	1.35	1.12	1.43	0.264
NCI-H838	0.223	0.23	0.178	0.186	0.151	0.981	0.9	0.68	0.714	0.688	1	1.05	1.06	0.709	0.896	0.858	0.744	0.425	0.333	0.254
HARA	0.237	0.202	0.314	0.195	0.204	0.281	0.357	0.38	0.177	0.141	0.926	0.84	0.865	0.73	0.799	0.948	1.13	0.543	0.122	0.213
NCI-H2087	0.238	0.196	0.21	0.104	0.0948	1.6	1.07	0.637	0.235	0.392	1.02	1.03	1.07	1.34	0.583	1.06	1	0.272	0.145	0.151
NCI-H1437	0.338	0.29	0.166	0.141	0.162	1.12	1.09	0.755	0.247	0.297	0.979	0.941	–	0.913	0.801	0.486	0.383	0.332	0.0977	0.196
NCI-H1792	0.69	0.61	0.258	0.579	0.431	0.896	0.517	0.551	0.17	0.0979	0.774	0.744	0.706	0.898	0.602	1.11	0.815	0.688	0.635	0.321
NCI-H650	0.301	0.283	0.322	0.232	0.189	0.926	1.01	0.822	0.566	0.174	1.1	1.16	1.18	1.16	0.977	0.413	0.748	0.606	0.49	0.355
201T	0.35	0.387	0.294	0.375	0.28	0.511	0.616	0.392	0.657	0.214	1.01	1.05	1.01	1.03	1	1.12	1.1	0.928	0.924	0.361
HCC-44	1.06	0.964	0.922	0.661	0.452	0.988	1.01	1.01	0.855	0.314	0.752	0.991	0.839	0.827	0.753	0.913	0.918	0.35	0.213	0.179
H3255	0.33	0.331	0.306	0.275	0.274	0.812	1	0.573	0.385	0.274	0.763	0.819	0.727	0.403	0.73	0.804	0.9	0.509	0.22	0.27
NCI-H647	0.481	0.485	0.174	0.056	0.0731	0.707	0.531	0.309	0.0742	0.159	1.29	1.22	1.06	1.27	0.211	1.15	1.08	0.439	0.169	0.128
NCI-H23	0.482	0.418	0.349	0.153	0.189	0.252	0.253	0.229	0.13	0.222	0.616	0.865	0.717	0.689	0.586	1.09	0.906	0.542	0.208	0.219

Cell Line	relative viability ([1]; first compound 0.04 µM)	relative viability ([1]; first compound 0.1265 µM)	relative viability ([1]; first compound 0.4 µM)	relative viability ([1]; first compound 1.265 µM)	relative viability ([1]; first compound 4 µM)	relative viability ([2]; first compound 0.04 µM)	relative viability ([2]; first compound 0.1265 µM)	relative viability ([2]; first compound 0.4 µM)	relative viability ([2]; first compound 1.265 µM)	relative viability ([2]; first compound 4 µM)	relative viability ([3]; first compound 0.01 µM)	relative viability ([3]; first compound 0.03162 µM)	relative viability ([3]; first compound 0.1 µM)	relative viability ([3]; first compound 0.3162 µM)	relative viability ([3]; first compound 1 µM)	relative viability ([4]; first compound 0.04 µM)	relative viability ([4]; first compound 0.1265 µM)	relative viability ([4]; first compound 0.4 µM)	relative viability ([4]; first compound 1.265 µM)	relative viability ([4]; first compound 4 µM)
NCI-H460	0.147	0.138	0.206	0.024	0.04	0.649	0.756	0.301	0.0985	0.0595	0.484	0.489	0.0913	0.402	0.0154	0.893	1.15	0.18	0.0575	0.0265
EKVX	0.383	0.343	–	0.29	0.215	0.741	0.625	–	0.328	0.21	0.93	0.865	0.902	–	0.883	1	1.39	–	0.716	0.187
EPLC-272H	0.267	0.343	0.349	0.356	0.131	0.167	0.217	0.162	0.19	0.118	0.974	1.06	0.961	–	0.876	0.966	0.986	0.686	0.955	0.266
NCI-H2126	0.35	0.361	0.364	0.316	0.311	1.24	1.05	0.697	0.566	0.346	0.794	0.784	0.717	0.78	0.772	1.17	1.12	0.89	0.744	0.425
LXF-289	0.565	0.61	0.454	0.435	0.0922	1.07	1.09	0.866	0.345	0.133	1.03	1.07	1.06	0.916	1.02	1.03	0.833	0.757	0.291	0.131
NCI-H2405	0.594	0.509	0.457	0.282	0.261	0.964	0.829	0.514	0.29	0.414	0.851	0.871	0.907	0.525	0.624	1.04	1.04	0.732	0.498	0.302
NCI-H1755	0.448	0.456	0.419	0.396	0.224	0.412	0.546	0.344	0.365	0.274	0.899	1.01	0.929	0.973	0.919	1.16	1.07	0.454	0.358	0.177
HCC-78	0.538	0.506	0.322	0.383	0.424	0.783	0.658	0.543	0.672	0.485	0.338	0.328	0.348	0.263	0.334	0.419	0.438	0.443	0.561	0.382
LOU-NH91	0.538	0.464	0.242	0.188	0.243	0.827	0.672	0.284	0.151	0.266	0.812	0.739	0.703	0.677	0.64	0.5	0.498	0.492	0.303	0.319
NCI-H3122	0.18	0.185	0.213	0.163	0.135	1.05	1.05	0.623	0.271	0.133	0.836	0.951	0.762	0.773	0.677	0.975	1.06	0.927	0.231	0.172
HCC-827	0.514	0.491	0.407	0.36	0.222	0.204	0.239	0.215	0.183	0.153	0.996	0.998	1.02	0.977	0.989	1.03	1.07	0.825	0.462	0.347
NCI-H1975	0.752	0.569	0.306	0.165	0.178	0.781	0.771	0.655	0.724	0.266	0.74	0.641	0.614	0.64	0.408	0.371	0.442	0.345	0.201	0.213
NCI-H1651	0.504	0.507	0.415	0.516	0.182	0.468	0.504	0.422	0.161	0.14	–	0.79	–	0.665	0.115	0.828	0.968	0.404	0.516	0.153
NCI-H441	0.214	0.196	0.366	0.12	0.146	1.4	1.31	0.664	0.24	0.293	0.76	0.876	0.694	0.727	0.438	–	0.848	0.218	0.15	0.0844
LCLC-103H	0.469	0.468	0.459	0.386	0.331	0.952	0.907	0.554	0.47	0.257	1.04	0.925	0.985	1.03	0.921	1.14	1.02	0.939	0.847	0.252
LCLC-97TM1	0.227	0.225	0.111	0.174	0.103	0.315	0.449	0.222	0.185	0.128	0.233	0.269	0.217	–	0.245	0.928	0.501	0.706	0.0804	0.242
